pIC50: −log10 of the molar value. Like-named read-outs stand apart in the source and are kept apart here.
Tests used:
T98G = assay: GBM cell line viability IC50, T98G; type: cell-based; details: for pIC50: Homo sapiens
Experimental: (§1) In vitro experiments were devised in which a series of GBM cell lines representative for MGMT negative and MGMT positive tumour cells were used.
(§2) Compounds: 1-100 µM EDO-S101, 1-50 µM temozolomide (TMZ), 1-50 µM temozolomide + 500 nM vorinostat, 1-40 µM bendamustine, 1-40 µM bendamustine and 500 nM vorinostat.
Twelve glioblastoma cell lines representing grade III and IV gliomas and with different expression of MGMT, drug and radiotherapy sensitivity and five patient derived glioblastoma stem, cells were used (see above). Four patient-derived glioblastoma stem cells, kindly provided from J. Gregory Cairncross, and Samuel Weiss at the Hotchkiss Brain Institute, Faculty of Medicine, University of Calgary, Calgary, Alberta, Canada and one luciferase transfected, PTC#8, from Prof Angelo Vescovi, University la Bicocca, Milan were cultured in defined culture serum free medium (SFM) and in non-adherent spheres culture. Cells were resuspended in DMEM/F12 media without serum supplemented with 20 ng/ml epidermal growth factor (Sigma-Aldrich), 20 ng/ml basic fibroblast growth factor (Sigma-Aldrich), B-27 supplement 1X (Gibco, Life Technologies), and antibiotics. Treatment with EDO-S101 was added straight after plating 3×10^3 cells in 96-well plates with the stem cells media. Spheres were counted 5 days after treatment under an inverted microscope at ×4 magnification. A sphere was counted if it had at least 15 cells.
(§3) Cells were seeded at a density of 2 × 10^4 cells/ml in 24 well plates. Cells were left to attach and grow in 5% FCS DMEM for 24 h. […] Cells trypsinized and resuspended in 1.0 ml of saline were counted using the NucleoCounterTM NC-100 (automated cell counter systems, Chemotec, Cydevang, DK) in order to evaluate cell viability. […] IC50 values were calculated by the GraFit method (Erithacus Software Limited, Staines, UK). Cell viability was measured with the 3-(4,5 dimethylthiazol-2-yl)-2,5-diphenyl tetrazolium bromide (MTT; Sigma-Aldrich) assay.
(§4) IC50 and IC20 values for all twelve cell lines against bendamustine and vorinostat were also determined as described above. […]

[1] = system: twelve tested GBM cell lines; assay: GBM cell line viability, panel of twelve tested cell lines; type: cell-based; details: in combination with 500 nM vorinostat
Experimental: as §1, §2
Twelve glioblastoma cell lines representing grade III and IV gliomas and with different expression of MGMT, drug and radiotherapy sensitivity and five patient derived glioblastoma stem, cells were used (see above). […] Spheres were counted 5 days after treatment under an inverted microscope at ×4 magnification. A sphere was counted if it had at least 15 cells.
as §3, with “plates.” for “plates. Cells were left to attach and grow in 5% FCS DMEM for 24 h.”
as §4

GBM12 cells = assay: Intracerebral luciferase-transfected GBM12 murine brain tumour model; type: in vivo, athymic mice; details: for median survival: IV weekly day +4, +11, +18, EDO-S101 60 mg/kg, bendamustine 50 mg/kg, controls 52 days
Experimental: Therapeutic activity of EDO-S101 was determined in murine brain tumour models against GBM, based on tumour growth as determined by bioluminescence imaging and survival analysis as determined by Kaplan-Meier analysis.
Murine brain tumour models were created by intracerebral injection of 3×10^5 luciferase-transfected GBM12 cells in athymic mice under aesthesia using a stereotactic platform. GBM12 is a MGMT negative tumour cell line. Eight-week-old athymic mice underwent minimum 7 \-day acclimation/quarantine prior to surgery. Surgery was performed in a laminar flow hood under sterile conditions. Tylenol 300 mg/kg PO was given for analgesia 24 hours before the surgery continuing 48 hours postoperatively. Aesthesia was achieved by inhalation of 1-2% isoflurane. After the mouse became well anesthetized, it was placed in the Kopf stereotactic instrument. A small amount of BNP antibiotic cream (a mixture of Bacitracin, Neomycin and Polymyxin) was smeared on its eyes to prevent infection and corneal damage during surgery. A strip of soft fabric was placed over the mouse’s body and tail to prevent excessive heat loss during surgery. The scalp area was cleaned with a 2% solution of Betadine and dried with cotton tipped applicator. A midline sagittal incision was made in the scalp.
A small burr hole was drilled in the left skull with a surgical drill (Kopf) or a Dremel drill according to the coordinates (AP: 0.5 mm, LM: 2.5 mm) as determined by reference to the mouse brain atlas by Franklin and Paxinos. […] The mice were monitored post-operatively at least twice a day for 5 days or until recovery is complete. […]
After intracerebral injection of the GBM cells, all the mice were subjected to bioluminescence imaging (BLI) twice a week starting at day-4 post-intracerebral injection to monitor the real-time in vivo tumour growth. […] Peak luminescent signals were recorded 10 minutes after luciferin injection. Regions of interest encompassing the intracranial area of signal were defined using Living Image software (Xenogen, Alameda, CA), and the total photons/s/steradian /cm2 was recorded. […]

Row | Structure (SMILES) | pIC50 (T98G; MGMT positive T98G glioblastoma cell line, read-out: IC50) | IC50 (T98G; T98G, MGMT pos., no unit in Table 2 (µM), read-out: IC50) [µM] | sensitivity of all cell lines (FIG. 5) [1] | median survival (GBM12 cells) [days] | pIC50 (T98G; T98G) | tumour growth (bioluminescence imaging) (GBM12 cells; IV 60 mg/kg day +4, +11, +18)
1 | Cn1nnc2c(C(N)=O)ncn2c1=O [temozolomide] | < 4.00 | > 100 |  |  |  | 
2 | Cn1c(CCCC(=O)O)nc2cc(N(CCCl)CCCl)ccc21 [bendamustine] |  |  | highly sensitive except Mz54 and T98G | 58 | 4.28 | 
3 | Cn1c(CCCCCCC(=O)NO)nc2cc(N(CCCl)CCCl)ccc21 [EDO-S101] |  |  |  | 66 |  | suppression of tumour growth

— US20230049350A1, “COMPOUNDS FOR TREATING BRAIN CANCER” (Purdue Pharmaceutical Products L.P., priority 2014, published 2023)
